Data: patent publication US11987807B2, “Isolated human lung progenitor cells and uses thereof” (THE GENERAL HOSPITAL CORPORATION, priority 2012, dated 2024)
Where two headings read alike, the source gives them in different places.

Tests used:
[1] = system: mouse ESC-derived endoderm / anterior foregut endoderm cells; conditions: for NKX2.1 induction: anteriorized endoderm, BMP4 alone, or FGF2 or/and GSK3i without BMP4
Text: Dorsomorphin inhibits BMP signaling through the SMAD pathway while PD98059 inhibits MAPK signaling.
A recent report described a monolayer-based strategy using synergistic activation of Nodal and Wnt-β-catenin signaling as well as staged BMP4 inhibition to direct mouse ES cells towards an endoderm fate with high efficiency (Sherwood et al., 2011). This technology was adapted herein to generate definitive endoderm (DE) from mouse ES cells. […] Snoeck and colleagues reported that Noggin (a BMP inhibitor) synergized with SB431542 (a TGFβ inhibitor) to suppress a posterior endoderm fate (Cdx2+) in favor of an anterior endoderm fate (Sox2+) (Green et al., 2011). […] Endoderm was treated with combinations of Activin (a TGFβ agonist), A-83-01 (a TGFβ antagonist), BMP4, and Dorsomorphin (a BMP4 antagonist) for 2 days (FIG. 2B). The number of FoxA2+Sox2+ anterior endoderm cells was compared to the total number of FoxA2+ endoderm cells (FIG. 2B). The treated cells were further exposed to the BMP4/FGF2/WNT agonist cocktail for another 2 days to examine their competence to generate Nkx2.1+ cells (FIG. 2B). […] It was tested if their inhibition would enhance anteriorization together with a TGFβ inhibitor.
The expression of lung and other anterior cell fate lineage genes including FoxN1 (thymus), Pax8 (thyroid), and Pax9 and Tbx1 (pharyngeal pouch endoderm) was analyzed by real-time qPCR (Figure S4A).
It was tested if BMP4, FGF2, and WNT signaling are each required to specify lung endoderm from the anterior foregut in an in vitro mouse ESC differentiation system. To do this, anteriorized endoderm cells were exposed to combinations of BMP4, FGF2 and WNT agonists and antagonists (FIGS. 3A and B).
These complexes translocate to the nucleus and activate expression of target genes (von Bubnoff and Cho, 2001; Chen et al., 2004; Sieber et al., 2009; Miyazono et al., 2010). Besides Smad1/5/8-mediated transcription, BMP-induced receptor complexes can activate the mitogen-activated protein kinase (MAPK) pathway via ERK, […] or p38 (Kozawa et al., 2002).
(§1) Mouse Endoderm Anteriorization and Nkx2.1 Cell Differentiation: Mouse definitive endoderm was generated as described herein. To anteriorize endoderm, on and after day 5, the cells were split and re-seeded on to the plates pre-coated with 804G-conditioned medium and fed with DO medium+0.5-1 μM A8301 (CalBiochem, 616454) for 2 days.

[2] = system: mouse ES cell-derived definitive endoderm; assay: Anteriorization of mouse ESC-derived definitive endoderm to FoxA2+Sox2+ anterior foregut endoderm; type: cell-based; conditions: for effect on FoxA2+Sox2+ cells: treatment of definitive endoderm at the anteriorization step
Procedure: This technology was adapted herein to generate definitive endoderm (DE) from mouse ES cells. […] Next, it was asked if the newly generated DE cells have the competence to generate Nkx2.1+ cells. […] Since the inventors had already incorporated BMP inhibition during DE generation (FIG. 7), the question whether continuous BMP inhibition is necessary for anteriorization or if TGFβ inhibition alone was sufficient for anterior patterning was explored. Endoderm was treated with combinations of Activin (a TGFβ agonist), A-83-01 (a TGFβ antagonist), BMP4, and Dorsomorphin (a BMP4 antagonist) for 2 days (FIG. 2B). The number of FoxA2+Sox2+ anterior endoderm cells was compared to the total number of FoxA2+ endoderm cells (FIG. 2B). The treated cells were further exposed to the BMP4/FGF2/WNT agonist cocktail for another 2 days to examine their competence to generate Nkx2.1+ cells (FIG. 2B). […] It was tested if their inhibition would enhance anteriorization together with a TGFβ inhibitor.
Mouse Endoderm Anteriorization and Nkx2.1 Cell Differentiation: Mouse definitive endoderm was generated as described herein. To anteriorize endoderm, on and after day 5, the cells were split and re-seeded on to the plates pre-coated with 804G-conditioned medium and fed with DO medium+0.5-1 μM A8301 (CalBiochem, 616454) for 2 days. Then the media was rinsed with DO medium 2 times and switched to DO medium supplemented with 50 ng/ml BMP4, 100 ng/ml FGF2 (GIBCO, PHG0026), and 5-10 nM GSK3iXV for another 2-3 days. To generate Nkx2.1+Sox2+ proximal progenitor cells, the cells were rinsed with DO medium 2 times and switched to DO medium containing RA-supplemented B27, 50 ng/ml BMP7, 50 ng/ml FGF7, 100 nM IWR-1, and 1-2 μM PD98059 for 2 days or longer times.
Immunofluorescence: At each differentiation step, the cells were fixed with fresh paraformaldehyde (4%) for 15 min at room temperature, rinsed in PBS, washed with PBS+0.2% Triton X-100 and incubated with the primary antibodies at 4° C. overnight (>16 hrs) diluted in PBS+1% BSA. Following incubation, the cells were rinsed 4 times PBS+0.2% Triton X-100, and incubated with secondary antibodies at room temperature for 2 hours. The images were visualized using an Olympus IX71 inverted fluorescence microscope or a Nikon A1 Confocal Laser microscope.
The secondary antibodies were purchased from Invitrogen (AlexaFluor-549 and AlexaFluor-488). The quantification was performed by counting at least 5 random fields at 20× magnification and calculating the average and standard deviation.

[3] = system: human Cystic Fibrosis iPSC-derived definitive endoderm cells; assay: Anteriorization of human Cystic Fibrosis iPSC-derived definitive endoderm (SOX2 induction); type: cell-based
Procedure: FIG. 6 is a schematic depicting an exemplary strategy and time line to generate Nkx2.1+ lung multipotent progenitors from human iPSCs. Data from the experiment indicate a step-wise differentiation of Nkx2.1+ lung progenitors from human iPSCs. A high yield of definitive endoderm from CF1 RiPS cells was obtained after treatment for 4 days in RPMI-1640 media in the presence of 2% B27 supplement, Activin A (100 ng/ml) and 5 μM PI3 Kinase inhibitor LY294002 with more than 90% of cells co-expressing transcription factors SOX17 and FOXA2 (data not shown). Anteriorization of endoderm into foregut endoderm cells was observed by detecting SOX2 expression in Foxa2+ cells derived from CF1 RiPS cells after 4 days of treatment with 500 nM A-83-01 (TGFβ antagonist) and 100 ng/ml Noggin (BMP4 antagonist) (data not shown). NKX2.1 staining was performed after anteriorization to foregut cells at D8 with serum-free medium containing 20 ng/ml BMP4, 20 ng/ml FGF2 and 5 nM GSK3iXV for 4 days (data not shown). […] In addition, confocal images following immunofluorescence staining indicates some Nkx2.1+ sphere contain basal cells positive for p63 (data not shown).
By using anteriorization conditions similar to Green et al., the induction of SOX2 expression in DE cells was obtained with efficiencies of up to 50%-60% after 4 days of treatment with A-83-01 (a TGFβ antagonist; data not shown). […]

[4] = system: mouse ESC-derived Nkx2.1+ cells; assay: Generation of proximal airway progenitors from mouse ESC-derived Nkx2.1+ lung endoderm cells; type: cell-based
Procedure: as §1

[5] = system: human iPSC-derived Foxa2+Sox2+ anterior endoderm; assay: Chemical screening and differentiation of Nkx2.1+ lung progenitors from human iPSC-derived Foxa2+Sox2+ anterior endoderm; type: cell-based
Procedure: In order to increase the efficiency of Nkx2.1+ lung progenitor production, the inventors performed an unbiased high throughput chemical screening on a kinase pathway inhibitor library and an NIH clinical drug library to identify small molecule compounds and FDA-approved clinical drugs that can facilitate NKX2.1-positive lung progenitor differentiation. The platform for chemical screening is illustrated in FIG. 14A. The screening was performed at the step of conversion of Foxa2+Sox2+ anterior endoderm to Nkx2.1+ lung endoderm.
At least five molecules were identified from the Kinase Compound Set (240 compounds) and at least 6 drugs were identified from the NIH Clinical Collection (400 compounds) that produced statistically significant (more than 3 fold) increases in the percentage of Nkx2.1+ cells (FIG. 14B). These Nkx2.1+ cells have been further stained in separate experiments to exclude the expression of neuronal lineage marker Tuj1 and thyroid lineage marker Pax8. In addition, all positive candidates identified in the primary screen have been assessed for drug duration and dose effects to increase the formation of lung progenitors, and they have been evaluated for other effects including inducing cytotoxicity, and cellular proliferation by Ki67 staining. […] It was also determined that BMP4 is dispensable for human lung progenitor differentiation from iPSCs, indicating a species difference in lung development in human and mouse.
Several of these negative compounds are MEK1/2 antagonists. […] For example, endoderm-specific deletion of MEK1/2 results in lung agenesis in mice (unpublished data).
After studying the additive and synergistic effects of the positive hits, a robust and economically efficient new protocol was devised for the generation of a highly enriched population of Nkx2.1+ lung progenitors (up to 85%-90%) from multiple iPS cell lines in xeno-free conditions in order to keep the cells suitable for future clinical applications. This exemplary differentiation medium contains one Wnt agonist (e.g., 0.5 uM CHIR9902), one PI3 kinase inhibitor (e.g., 0.02-0.05 uM PIK-75), one clinically used drug (e.g., 0.02-0.05 uM methotrexate), one BMP antagonist (e.g., 2-4 uM Dorsomorphin) and a single growth factor (e.g., 10-50 ng/ml FGF2). FIG. 12 is the summary of the newly developed step-wise airway progenitor differentiation protocol from iPSC to airway progenitors. Many other protocols can be generated by one of skill in the art from this basic protocol (RPMI+2% B27+10-50 ng/ml FGF2+0.5 uM CHIR9902+2-4 uM Dorsomorphin) together with the compounds listed in FIG. 14.

Cc1cccc(-c2nn(C(=S)Nc3ccccc3)cc2-c2ccnc3ccccc23)n1 [A-83-01]
Nkx2.1+ cells (of total cells) ([1]; after 2 days TGFβ inhibition, then BMP4/FGF2/WNT agonist cocktail 2 days): 7%-13
FoxA2+Sox2+ anterior endoderm (of total FoxA2+ cells) ([2]; TGFβ inhibition, 2 days): 40%-55
induction of SOX2 expression in DE cells, efficiency ([3]; 4 days of treatment): 50%-60

COC(=O)c1ccc[cH-]1.O=C1NC(=O)c2c1c1cccnc1c1[n-]c3c(Br)cc(O)cc3c21.[CH+]=O.[Ru] [GSK3i]
NKX2.1 induction [1]: not sufficient for NKX2.1 induction

O=C(Nc1cccc2cccnc12)c1ccc(N2C(=O)[C@@H]3[C@H](C2=O)[C@@H]2C=C[C@H]3C2)cc1 [IWR-1]
effect on FoxA2+Sox2+ cells [2]: did not increase the FoxA2+Sox2+ population
effect on Nkx2.1+Sox2+ cell production ([4]; individual factors removed or replaced in proximal induction medium): most pronounced effect

COc1cccc(-c2cc(=O)c3ccccc3o2)c1N [PD98059]
cell death [1]: Significant cell death
effect on generation of Nkx2.1+ cells ([1]; added to BMP4 induction (pSmad1/5/8 or MAPKK/ERK inhibition)): only partially decreased the Nkx2.1+ cell proportion
Nkx2.1+Sox2+ airway progenitor cells (of total number of Nkx2.1+ cells) ([4]; from day 9, 2-3 days, 1%-2% before treatment): up to 18%

CCN(CC)CCCCNc1ncc2cc(-c3cc(OC)cc(OC)c3)c(NC(=O)NC(C)(C)C)nc2n1 [PD173074]
cell death ([2]; together with a TGFβ inhibitor at anteriorization): induced cell death

CCCCCCCCCCCCCC(=O)O[C@@H]1[C@@H](C)[C@@]2(O)[C@@H](C=C(CO)C[C@]3(O)C(=O)C(C)=C[C@@H]23)[C@@H]2C(C)(C)[C@]12OC(C)=O [phorbol 12-myristate 13-acetate]
NKX2.1+ cell production ([5]; in vitro differentiation systems): stimulates NKX2.1+ cell production

BMP4: bone morphogenic protein 4, growth factor
NKX2.1 induction [1]: could induce NKX2.1 expression
requirement for human lung progenitor differentiation from iPSCs [5]: dispensable
NKX2.1 expression level ([5]; addition of BMP4): decreases NKX2.1 expression
total NKX2.1+ lung progenitor cell number ([5]; addition of BMP4): without affecting the total NKX2.1+ lung progenitor cell number
neuroectodermal marker Tuj1 ([2]; BMP4 present between days 5-7): less neuroectodermal marker Tuj1 was present

FGF2: fibroblast growth factor
effect on Nkx2.1+ cells ([1]; added dose of FGF2 despite presumptive endogenous FGF signaling): upregulated Nkx2.1+ cells
NKX2.1 induction [1]: not sufficient for NKX2.1 induction

B1: BMP7: BMP family member binding type I receptor ALK2 (protein, UniProt P18075 293-431, looked up)
Bone morphogenetic protein 7: STGSKQRSQNRSKTPKNQEALRMANVAENSSSDQRQACKKHELYVSFRDLGWQDWIIAPEGYAAYYCEGECAFPLNSYMNATNHAIVQTLVHFINPETVPKPCCAPTQLNAISVLYFDDSSNVILKKYRNMVVRACGCH
induction of Nkx2.1+ cells from the anterior endoderm compared to BMP4 ([1]; BMP7 10 ng/ml): had no effect
induction of Nkx2.1+ cells from the anterior endoderm ([1]; increased concentration (>100 ng/ml)): still failed to generate Nkx2.1+ cells

B2: Activin: a TGFβ agonist (protein, UniProt P08476 311-426, looked up)
Inhibin beta A chain: GLECDGKVNICCKKQFFVSFKDIGWNDWIIAPSGYHANYCEGECPSHIAGTSGSSLSFHSTVINHYRMRGHSPFANLKSCCVPTKLRPMSMLYYDDGQNIIKKDIQNMIVEECGCS
modifications: Inhibin beta A chain
notes: a TGFβ agonist
effect on Nkx2.1+ cells ([1]; treatment at the anteriorization step, then BMP4/FGF2/WNT agonist cocktail 2 days): few Nkx2.1+ cells
effect on FoxA2+Sox2+ cells [2]: rare FoxA2+Sox2+ cells

B3: Noggin: a BMP4 antagonist (protein, UniProt Q13253 28-232, looked up)
Noggin: QHYLHIRPAPSDNLPLVDLIEHPDPIFDPKEKDLNETLLRSLLGGHYDPGFMATSPPEDRPGGGGGAAGGAEDLAELDQLLRQRPSGAMPSEIKGLEFSEGLAQGKKQRLSKKLRRKLQMWLWSQTFCPVLYAWNDLGSRFWPRYVKVGSCFSKRSCSVPEGMVCKPSKSVHLTVLRWRCQRRGGQRCGWIPIQYPIISECKCSC
requirement for anteriorization [3]: not necessary
